Test results published in patent US20250177318A1, “CMT-3 FORMULATIONS AND METHODS OF USING THE SAME” (The Research Foundation for the State University of New York, priority 2022, published 2025).

How the values were obtained:
[1] = Solubility of CMT-3 in aqueous solutions (statement); format: physicochemical
IL-1β = conditions: leucocytes isolated from patients within 24 h of the onset of direct ARDS; cited from earlier work

Solubility in aqueous solutions [1]: barely dissolved in aqueous solutions
Compound: NC(=O)C1=C(O)CC2CC3Cc4cccc(O)c4C(=O)C3=C(O)[C@]2(O)C1=O (some centres unmarked) [CMT-3, 6-demethyl-6-deoxy-4-de(dimethylamino)tetracycline]
IL-1β production in alveolar leucocytes (IL-1β): significantly suppressed
